The NIST ThermoML archive (doi:10.1016/j.jct.2011.02.012)
Numbers after ± are expanded uncertainties.

What was measured:
[1] = 101.33 kPa, Liquid, Vibrating tube method
[2] = activity coefficient (dimensionless); of the first substance listed, at infinite dilution; xn = mol fraction of the nth substance listed; conditions: Liquid, Chromatography, x1 = 0

mass density ([1]; 298.15 K) [kg/m3]	mass density ([1]; 308.15 K) [kg/m3]	mass density ([1]; 318.15 K) [kg/m3]	mass density ([1]; 328.15 K) [kg/m3]	mass density ([1]; 338.15 K) [kg/m3]	mass density ([1]; 348.15 K) [kg/m3]	mass density ([1]; 358.15 K) [kg/m3]	activity coefficient ([2]; 298.15 K)	activity coefficient ([2]; 308.15 K)	activity coefficient ([2]; 318.15 K)	activity coefficient ([2]; 328.15 K)	activity coefficient ([2]; 338.15 K)	activity coefficient ([2]; 348.15 K)	activity coefficient ([2]; 358.15 K)	Compound
1036.27 ± 0.26	1028.4 ± 0.25	1020.64 ± 0.25	1012.97 ± 0.24	1005.4 ± 0.24	997.91 ± 0.23	990.51 ± 0.23								CCn1cc[n+](C)c1.N#C[B-](C#N)(C#N)C#N [1-ethyl-3-methylimidazolium tetracyanoborate]
							22 ± 1.5	20.1 ± 1.4	19.1 ± 1.3	17.6 ± 1.2	16.6 ± 1.1	15.8 ± 1.1	14.9 ± 1	CCCCC [pentane] + CCn1cc[n+](C)c1.N#C[B-](C#N)(C#N)C#N
							8.54 ± 0.58	8.32 ± 0.57	8.07 ± 0.55	7.79 ± 0.53	7.6 ± 0.5	7.43 ± 0.51	7.24 ± 0.49	CCCOCCC [dipropyl ether] + CCn1cc[n+](C)c1.N#C[B-](C#N)(C#N)C#N
							3.77 ± 0.26	3.76 ± 0.26	3.76 ± 0.26	3.75 ± 0.26	3.74 ± 0.25	3.74 ± 0.25	3.73 ± 0.25	C#CCCCC [1-hexyne] + CCn1cc[n+](C)c1.N#C[B-](C#N)(C#N)C#N
							10.7 ± 0.7	9.9 ± 0.7	9.5 ± 0.7	8.8 ± 0.6	8.4 ± 0.6	8 ± 0.5	7.6 ± 0.5	C1CCCC1 [cyclopentane] + CCn1cc[n+](C)c1.N#C[B-](C#N)(C#N)C#N
							16.7 ± 1.1	15.2 ± 1	14.3 ± 1	13.2 ± 0.9	12.3 ± 0.8	11.6 ± 0.8	10.9 ± 0.7	C1CCCCC1 [cyclohexane] + CCn1cc[n+](C)c1.N#C[B-](C#N)(C#N)C#N
							2.24 ± 0.15	1.99 ± 0.14	1.82 ± 0.12	1.66 ± 0.11	1.51 ± 0.1	1.38 ± 0.09	1.29 ± 0.08	O [water] + CCn1cc[n+](C)c1.N#C[B-](C#N)(C#N)C#N
							8.66 ± 0.59	8.48 ± 0.58	8.31 ± 0.57	8.15 ± 0.56	7.99 ± 0.54	7.86 ± 0.54	7.73 ± 0.53	C#CCCCCCC [1-octyne] + CCn1cc[n+](C)c1.N#C[B-](C#N)(C#N)C#N
							5.74 ± 0.39	5.66 ± 0.39	5.58 ± 0.38	5.51 ± 0.38	5.45 ± 0.37	5.39 ± 0.37	5.33 ± 0.36	C#CCCCCC [1-heptyne] + CCn1cc[n+](C)c1.N#C[B-](C#N)(C#N)C#N
							21.9 ± 1.5	19.9 ± 1.4	18.6 ± 1.3	17 ± 1.2	15.8 ± 1.1	14.8 ± 1	13.9 ± 1	C1CCCCCC1 [cycloheptane] + CCn1cc[n+](C)c1.N#C[B-](C#N)(C#N)C#N
							203 ± 14	177 ± 12	156 ± 11	137 ± 9	122 ± 8	108 ± 7	96.7 ± 6.6	CCCCCCCCCC [decane] + CCn1cc[n+](C)c1.N#C[B-](C#N)(C#N)C#N
							33.8 ± 2.3	30.7 ± 2.1	28.9 ± 2	26.3 ± 1.8	24.5 ± 1.7	23.1 ± 1.6	21.8 ± 1.5	CCCCCC [hexane] + CCn1cc[n+](C)c1.N#C[B-](C#N)(C#N)C#N
								1.2 ± 0.08	1.22 ± 0.08	1.24 ± 0.08	1.25 ± 0.08	1.28 ± 0.08	1.17 ± 0.07	CCCC(=O)CC [3-hexanone] + CCn1cc[n+](C)c1.N#C[B-](C#N)(C#N)C#N
							60.3 ± 4.1	54.3 ± 3.7	50.4 ± 3.5	46.4 ± 3.2	42.3 ± 2.9	39.5 ± 2.7	36.7 ± 2.5	CC(C)CC(C)(C)C [2,2,4-trimethylpentane] + CCn1cc[n+](C)c1.N#C[B-](C#N)(C#N)C#N
							9.24 ± 0.63	8.83 ± 0.6	8.56 ± 0.58	8.24 ± 0.56	7.97 ± 0.54	7.71 ± 0.53	7.52 ± 0.51	C=CCCC [1-pentene] + CCn1cc[n+](C)c1.N#C[B-](C#N)(C#N)C#N
							2.6 ± 0.18	2.6 ± 0.18	2.61 ± 0.18	2.61 ± 0.18	2.61 ± 0.18	2.61 ± 0.18	2.61 ± 0.18	CCc1ccccc1 [ethylbenzene] + CCn1cc[n+](C)c1.N#C[B-](C#N)(C#N)C#N

Compound	mass density ([1]; 298.15 K) [kg/m3]	mass density ([1]; 308.15 K) [kg/m3]	mass density ([1]; 318.15 K) [kg/m3]	mass density ([1]; 328.15 K) [kg/m3]	mass density ([1]; 338.15 K) [kg/m3]	mass density ([1]; 348.15 K) [kg/m3]	mass density ([1]; 358.15 K) [kg/m3]	activity coefficient ([2]; 298.15 K)	activity coefficient ([2]; 308.15 K)	activity coefficient ([2]; 318.15 K)	activity coefficient ([2]; 328.15 K)	activity coefficient ([2]; 338.15 K)	activity coefficient ([2]; 348.15 K)	activity coefficient ([2]; 358.15 K)
Cc1ccccc1C [1,2-dimethylbenzene] + CCn1cc[n+](C)c1.N#C[B-](C#N)(C#N)C#N								2.17 ± 0.15	2.18 ± 0.15	2.2 ± 0.15	2.21 ± 0.15	2.22 ± 0.15	2.24 ± 0.15	2.25 ± 0.15
Cc1cccc(C)c1 [1,3-dimethylbenzene] + CCn1cc[n+](C)c1.N#C[B-](C#N)(C#N)C#N									2.56 ± 0.17	2.58 ± 0.18	2.6 ± 0.18	2.61 ± 0.18	2.63 ± 0.18	2.64 ± 0.18
Cc1ccccc1 [toluene] + CCn1cc[n+](C)c1.N#C[B-](C#N)(C#N)C#N								1.65 ± 0.11	1.67 ± 0.11	1.69 ± 0.11	1.71 ± 0.11	1.73 ± 0.12	1.75 ± 0.12	1.76 ± 0.12
